From patent US11020358B2, “Method for the anti-senescence of and/or rejuvenating stem cells” (GWO XI STEM CELL APPLIED TECHNOLOGY CO., LTD., priority 2014, dated 2021) come the findings set out here.

The structures appear in SMILES notation.

In assay [1] the test system is ADSCs. As to the kind of experiment: SA-β-gal activity assay in ADSCs. It counts as cell-based, human. Here is the method: (§1) Four portions of equal volume of the above culture medium containing the sub-cultured ADSCs were separately handled by adding thereinto H2O2 (purchased from Sigma-Aldrich) at a final concentration of 100 μM and reacting for 2 hours to induce senescence of the ADSCs, replacing the culture medium with a fresh culture medium, adding thereinto TC (trans-cinnamaldehyde, purchased from Sigma-Aldrich) at a final concentration of 0, 2, 4 or 6 μM and reacting for 6 hours, so as to obtain “H2O2 group (i.e., treated with H2O2 for 2 hours, but not treated with TC),” “H2O2+TC2 group (i.e., treated with H2O2 for 2 hours and then treated with 2 μM of TC for 6 hours),” “H2O2+TC4 group (i.e., treated with H2O2 for 2 hours and then treated with 4 μM of TC for 6 hours),” and “H2O2+TC6 group (i.e., treated with H2O2 for 2 hours and then treated with 6 μM of TC for 6 hours)” ADSCs.
Four portions of equal volume of the above culture medium containing the sub-cultured ADSCs were handled by adding thereinto TC at final concentrations of 0, 2, 4 and 6 μM respectively, and reacting for 6 hours to obtain “untreated group (i.e., without any treatment),” “TC2 group (i.e., treated only with 2 μM of TC),” “TC4 group (i.e., treated only with 4 μM of TC)” and “TC6 group (i.e., treated only with 6 μM of TC)” ADSCs.
It has been known that senescent cells in acidic environment (e.g., pH 6.0) show the activity of SA-β-gal. Therefore, the senescence level of cells can be reflected by measuring the expression level of SA-β-gal in the cells.
(§2) The ADSCs in each sample of the group obtained from Example 1 (1) were washed with PBS twice, fixed with 3% formaldehyde and washed with PBS once. […]
The staining solution was removed. […] The cells were observed and photographed under a microscope with 10-fold magnification, and the percentage of SA-β-gal activity-positive cells was calculated.

The test system of another assay is WJSCs. As to the kind of experiment: SA-β-gal activity assay in WJSCs. It is filed as cell-based. On the procedure: Three portions of equal volume of the above culture medium containing the sub-cultured WJSCs were provided. The first and second portions were handled by adding thereinto H2O2 at a final concentration of 100 μM, reacting for 2 hours to induce senescence of the WJSCs, replacing the culture medium with a fresh culture medium, adding thereinto TC at final concentrations of 0 and 6 μM, respectively, and reacting for 6 hours to obtain “H2O2 group (i.e., treated with H2O2 for 2 hours, but not treated with TC)” and “H2O2+TC6 group (i.e., treated with H2O2 for 2 hours and then treated with 6 μM of TC for 6 hours) WJSCs. The third portion without any treatment was referred to as “untreated group” WJSCs.
as §2
The staining solution was removed. […] The cells were observed and photographed under a microscope with 10-fold magnification, and the percentage of SA-β-gal activity-positive cells was calculated. […]

In the next assay the test system is SIRT1 gene. As to the kind of experiment: Quantitative RT-PCR of SIRT1 gene in hBMMSCs. It counts as cell-based, human. On the procedure: Three portions of equal volume of the above culture medium containing the sub-cultured hBMMSCs were provided. The first and second portions were handled by adding thereinto H2O2 at a final concentration of 100 μM, reacting for 2 hours to induce senescence of the hBMMSCs, replacing the culture medium with a fresh culture medium, adding thereinto TC at final concentrations of 0 and 6 μM respectively, and reacting for 6 hours to obtain “H2O2 group (i.e., treated with H2O2 for 2 hours, but not treated with TC)” and “H2O2+TC6 group (i.e., treated with H2O2 for 2 hours and then treated with 6 μM of TC for 6 hours) hBMMSCs. The third portion without any treatment was referred to as “untreated group” hBMMSCs. […]
Each of the cDNA of ADSCs of different groups from Experiment (3-1) was handled as follows. […] The mixture was then placed in a real-time quantitative PCR machine (ABI prism 7700 sequence detection system) to perform a reaction for quantifying the gene expression levels. […]
The steps as shown in Experiment (3-2) were repeated, but the cDNA was substituted with the cDNA of the BMMSCs or WJSCs from Experiment (3-1) to conduct quantitative RT-PCR.

For assay [2], the system named is ADSCs. As to the kind of experiment: Flow cytometry of surface antigens of ADSCs. It is filed as cell-based, human. The settings on record: compared to untreated group. On the procedure: as §1
Four portions of equal volume of the above culture medium containing the sub-cultured ADSCs were handled by adding thereinto TC at final concentrations of 0, 2, 4 and 6 μM respectively, and reacting for 6 hours to obtain “untreated group (i.e., without any treatment),” “TC2 group (i.e., treated only with 2 μM of TC),” “TC4 group (i.e., treated only with 4 μM of TC)” and “TC6 group (i.e., treated only with 6 μM of TC)” ADSCs. […]
On the technique in general: A flow cytometer gives signals particle by particle.

`O=C/C=C/c1ccccc1` [TC, trans-cinnamaldehyde]: the “number of the SA-β-gal activity-positive cells” value in the assay with ADSCs [1] (H2O2-senescent ADSCs, 2, 4 and 6 μM TC 6 h, compared to H2O2 group) was “significantly reduced”; in the assay with ADSCs [1] (non-senescent ADSCs, 2, 4 and 6 μM TC 6 h, compared to untreated group), “significantly reduced along with the increment in the concentration of TC”. Moreover, in the assay with WJSCs (H2O2+TC6 group (6 μM TC 6 h after H2O2) compared to H2O2 group), the “number of the SA-β-gal activity-positive WJSCs” value was “significantly reduced”. For the same compound, the “expression level of SIRT1 gene in hBMMSCs” value in the assay with SIRT1 gene (H2O2+TC6 group compared to H2O2 group) is “significantly increased”. Also, the “expression phenotypes of the surface antigens” value with ADSCs [2] (100 μM H2O2 2 h then 6 μM TC 6 h (H2O2+TC6 group)) is “not significantly changed”.

As to `OO` [H2O2, reference compound], the “number of the SA-β-gal activity-positive cells” value with ADSCs [1] (ADSCs, 100 μM H2O2 2 h, compared to untreated group) is recorded as “significantly increased”. Also, in the assay with WJSCs (H2O2 group (100 μM 2 h) compared to untreated group), the “number of the SA-β-gal activity-positive WJSCs” value is “significantly increased”. Further, the “expression level of SIRT1 gene in hBMMSCs” value in the assay on SIRT1 gene (H2O2 group compared to untreated group) was “significantly reduced”. Besides, the “expression phenotypes of the surface antigens” value in the assay with ADSCs [2] (100 μM H2O2 2 h (H2O2 group)) is given as “not significantly changed”.
